Measurements: US6150325A, “Bicyclic tachykinins antagonists, preparation thereof and their use in pharmaceutical compositions” (A. Menarini Industrie Farmaceutiche Riunite S.r.l., priority 1995, dated 2000)

Target: T1, NKA receptor (Mus musculus, UniProt P30549)
T1 construct: contractions of the urinary bladder in the anaesthetized mouse; from tissue; host or cells: urinary bladder of the anaesthetized animal, in vivo
T1 sequence (P30549 1-384): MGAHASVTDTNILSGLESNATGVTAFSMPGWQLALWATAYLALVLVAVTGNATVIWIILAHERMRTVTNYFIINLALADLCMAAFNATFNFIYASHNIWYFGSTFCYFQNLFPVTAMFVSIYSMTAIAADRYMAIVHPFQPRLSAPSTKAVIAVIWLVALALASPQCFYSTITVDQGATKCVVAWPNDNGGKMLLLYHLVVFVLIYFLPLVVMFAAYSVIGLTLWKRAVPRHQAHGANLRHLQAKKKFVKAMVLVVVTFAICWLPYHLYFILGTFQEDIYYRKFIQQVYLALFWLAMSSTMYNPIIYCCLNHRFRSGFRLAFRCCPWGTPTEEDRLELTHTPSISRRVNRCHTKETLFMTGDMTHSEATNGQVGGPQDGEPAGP
Assay: in vivo inhibition of agonist [betaAla8]NKA(4-10)-induced contractions of the urinary bladder after intravenous administration
Details: anaesthetized mouse, 10 nmol/Kg i.v.
Method: The capability of the compounds of the present invention to interact as agonists or antagonists with the neurokynin A (NKA) receptor has been valued in a in vitro test using the pulmonary artery of a rabbit (RPA) (Rovero et al., Neuropeptides, 1989, 13, 263-270) and their activity was determined as pKB ([…] of the dissociation constant), as described in Jenkinson et al., TiPS, 12, 53-56, 1991. For example, compound 2 has shown a pKB =8.67. The capability of the products of the present invention to interact as agonists or antagonists with NKA receptor has been valued in vivo as capability, after intravenous administration,to inhibit the agonist [betaAla^8 ] NKA (4-10)-induced contractions of the urinary bladder in the anaesthetized mouse, as described in Maggi et al., J. Pharmacol. Exp. Ther., 1991, 257, 1172. Compound 1, e.g., causes, at dose of 10 nmol/Kg i.v., an inhibitory effect of 50-70%, as it has been valued at different times. The effect lasts over a period of more than 3 hours.

cyclo([Asn(β-D-Glc)-Asp-Trp-Phe-Dap-Leu]cyclo(2β-5β)) [Compound 1]
duration of the inhibitory effect: more than 3 hours
inhibitory effect on [betaAla8]NKA(4-10)-induced contractions of the urinary bladder (valued at different times): 50-70%
